Source: the Biogen ADME set (Fang et al. 2023)
In brackets after ≈: the same amount, converted by molar mass.

Settings: for aqueous solubility: pH 6.8

SMILES | MDR1-MDCK efflux ratio | intrinsic clearance, human liver microsomes | intrinsic clearance, rat liver microsomes | aqueous solubility | fraction unbound, human plasma | fraction unbound, rat plasma
N=C(N)N/N=C/c1c(Cl)cccc1Cl | 0.543 | ≤ 4.74 mL/min/kg | 77 mL/min/kg | 50.3 µg/mL (≈ 218 µM) |  | 
CNCC(=O)Nc1cc(Cl)c(OCCOC)c(Cl)c1 |  |  |  | 87.3 µg/mL (≈ 284 µM) |  | 
Cc1noc(C)c1CSC(=N)N1CCOCC1 | 1.21 | ≤ 4.74 mL/min/kg | ≤ 10.7 mL/min/kg |  |  | 
CCc1noc(-c2ccc(CCN)cc2)n1 | 0.479 | 394 mL/min/kg | 54.5 mL/min/kg | 44.1 µg/mL (≈ 203 µM) |  | 
C=CC[C@]1(O)CC[C@H]2[C@@H]3CCC4=CC(=O)CCC4=C3C=C[C@@]21C | 0.761 | 58.2 mL/min/kg | 592 mL/min/kg |  |  | 
Cc1cc(CN2CCN(c3ncccn3)CC2)on1 | 0.608 | ≤ 4.74 mL/min/kg | 91.5 mL/min/kg | 36.7 µg/mL (≈ 141 µM) |  | 
CC(=O)Nc1ccc(C(=O)N2CCCCC2c2nc(N)ncc2-c2ccc(Cl)cc2)cc1 (stereo unspecified) | 106 | 40.7 mL/min/kg | 643 mL/min/kg | 57.8 µg/mL (≈ 128 µM) | 0.0395 | 0.0355
COc1ccc(C(=O)N2CCN(C(=O)/C=C/c3ccc(Br)cc3)CC2)cc1 | 0.858 |  |  |  |  | 
CCc1nnc(Sc2nc3cc(C)nn3c3ccccc23)[nH]1 | 1.21 | 13.7 mL/min/kg | 139 mL/min/kg |  |  | 
CN(C)CC(C)(C)CNc1cn[nH]c(=O)c1Br | 0.676 | 8.54 mL/min/kg | 43.9 mL/min/kg |  |  | 
CN(CC1(CO)CCCC1)C(=O)CCN1CCCCC1=O | 21.2 | ≤ 4.74 mL/min/kg | 113 mL/min/kg |  |  | 
O=C(c1ccc(F)c(F)c1)N1CCN(C(=O)c2nc(Cl)ccc2Cl)CC1 | 4.42 | ≤ 4.74 mL/min/kg | 23.3 mL/min/kg | 61.7 µg/mL (≈ 154 µM) |  | 
Cc1cccc(NC(=O)N2CCC(N3CC=CC3)CC2)c1Cl | 0.517 | 9.11 mL/min/kg | 1040 mL/min/kg |  |  | 
CS(=O)(=O)c1ccc(-c2cnc(NCc3ccco3)n3cnnc23)cc1 | 14.8 | 15.7 mL/min/kg | 31.2 mL/min/kg | 36.4 µg/mL (≈ 98.5 µM) |  | 
CC(C)c1csc(NC(=O)C2CCN(c3ncccn3)CC2)n1 | 0.562 | 44.6 mL/min/kg | 268 mL/min/kg | 44.8 µg/mL (≈ 135 µM) |  | 
Clc1ccc(COc2cccc(N3CCNCC3)c2)cc1 |  | 5.23 mL/min/kg | 320 mL/min/kg | 23.2 µg/mL (≈ 76.6 µM) |  | 
Cc1cc(N2CCCC2c2cc(CCC(=O)O)cc(C)n2)ncn1 (stereo unspecified) |  | ≤ 4.74 mL/min/kg | ≤ 10.7 mL/min/kg |  | 1 | 1
Cc1cc(C(=O)NCCC2=CSC3=NCCCN23)c2cccc(C)c2n1 | 8.31 | ≤ 4.74 mL/min/kg | 291 mL/min/kg | 46.1 µg/mL (≈ 126 µM) |  | 

SMILES | MDR1-MDCK efflux ratio | intrinsic clearance, human liver microsomes | intrinsic clearance, rat liver microsomes | aqueous solubility | fraction unbound, human plasma | fraction unbound, rat plasma
CCc1noc(-c2ccc(C)c(N)c2)n1 |  | 209 mL/min/kg | 196 mL/min/kg |  |  | 
Cc1sc(-c2ccccn2)nc1-c1ccc(NC(=O)C(C)C)cc1 | 0.624 | 15.4 mL/min/kg | 48.8 mL/min/kg | 1.41 µg/mL (≈ 4.18 µM) |  | 
O=C(Nc1ncccc1OC(F)F)C1CCCCC1 |  | 61.6 mL/min/kg | 1090 mL/min/kg |  |  | 
NC(=O)c1noc([C@@H](CCCC2CCCCC2)CC(=O)NO)n1 |  | 7.31 mL/min/kg |  |  |  | 
Cc1cccc(Cl)c1-n1c(C)n[nH]c1=O |  |  |  | 16.1 µg/mL (≈ 72.1 µM) |  | 
O=C(O)c1ccccc1-n1cnc(CN2CCCC2)c1 | 2.49 | ≤ 4.74 mL/min/kg | ≤ 10.7 mL/min/kg | 38.8 µg/mL (≈ 143 µM) |  | 
COc1ccc(CNC(=O)CCCOc2ccc(C(C)=O)cc2)cc1 | 1.02 | 34.5 mL/min/kg | 644 mL/min/kg | 20.2 µg/mL (≈ 59.2 µM) |  | 
CC(c1nnc(-c2cccs2)o1)N1CCC(n2c(=O)[nH]c3ccccc32)CC1 (stereo unspecified) | 21.1 | 18.1 mL/min/kg | 273 mL/min/kg | 56.9 µg/mL (≈ 144 µM) |  | 
O=C(CCNC(=O)c1ccc(OC(F)(F)F)cc1)N[C@@H]1CCCc2ccccc21 | 3.14 | 154 mL/min/kg | 797 mL/min/kg | 4.6 µg/mL (≈ 11.3 µM) | 0.0336 | 0.0427
O=C([C@H]1CCCN(Cc2ccc(F)cc2)C1)N1CCc2ccccc2C1 | 0.792 | 336 mL/min/kg | 3660 mL/min/kg | 50 µg/mL (≈ 142 µM) |  | 
O=C(O)c1cnn(-c2nc3cc(Cl)c(OC(F)(F)F)cc3[nH]2)c1 | 1.05 | ≤ 4.74 mL/min/kg | ≤ 10.7 mL/min/kg |  |  | 
N#CCSCC(=O)NC1CCCCCC1 | 0.743 | ≤ 4.74 mL/min/kg | 38.2 mL/min/kg | 44.8 µg/mL (≈ 198 µM) |  | 
O=C(N[C@H](CO)CC1CCCCC1)c1cccc(-c2cnccn2)c1 |  | 198 mL/min/kg | 4260 mL/min/kg |  |  | 
O=C(Nc1nc2ccccc2[nH]1)c1cccnc1 |  |  |  | 0.2 µg/mL (≈ 0.839 µM) |  | 
Cc1cc(-c2ccc(N)nc2)cc(C2CCN(C(=O)CCCc3ccc(F)c(C)c3)CC2)n1 | 2.7 | 963 mL/min/kg | 1910 mL/min/kg | 8.44 µg/mL (≈ 18.9 µM) |  | 
Cn1cnnc1CNc1ccccc1C#N | 4.56 | ≤ 4.74 mL/min/kg | ≤ 10.7 mL/min/kg | 33.6 µg/mL (≈ 158 µM) |  | 
CC(C(O)c1ccc(O)cc1)N1CCC(Cc2ccccc2)CC1 (stereo unspecified) | 1.08 | 150 mL/min/kg | 960 mL/min/kg | 51.7 µg/mL (≈ 159 µM) |  | 
Cc1ccc(C(=O)NCCc2ccc(F)cc2)o1 | 0.511 | 22 mL/min/kg | 140 mL/min/kg |  |  | 

Results, then the compound that gave them:

MDR1-MDCK efflux ratio | intrinsic clearance, human liver microsomes | intrinsic clearance, rat liver microsomes | aqueous solubility | fraction unbound, human plasma | fraction unbound, rat plasma | SMILES
0.595 | 11.5 mL/min/kg | 238 mL/min/kg | 15.7 µg/mL (≈ 49.9 µM) |  |  | CNC(=O)c1ccc(CN(C)c2c(F)cc(C#N)cc2F)cc1
 | 250 mL/min/kg | 891 mL/min/kg | 57.5 µg/mL (≈ 143 µM) | 0.127 | 0.0519 | CNC(=O)C1(Cc2ccc(-c3ccncc3)cc2)CCN(Cc2cccc(F)c2)C1 (stereo unspecified)
1.92 | ≤ 4.74 mL/min/kg |  |  | 0.75 |  | NCC1CCCC1NC(=O)c1cc(N2CCNC2=O)ccc1F (stereo unspecified)
 | ≤ 4.74 mL/min/kg | ≤ 10.7 mL/min/kg | 31.4 µg/mL (≈ 145 µM) |  |  | CN(CCC#N)Cc1cc(C#N)ccc1F
 | 151 mL/min/kg | 2800 mL/min/kg |  |  |  | CCN(Cc1cccs1)C(=O)CN1CCC(n2c(=O)[nH]c3ccccc32)CC1
4.29 | 15 mL/min/kg | 120 mL/min/kg |  |  |  | Fc1c(CN2CCC(c3nnc4ccccn34)CC2)cccc1OC1CC1
0.896 | ≤ 4.74 mL/min/kg | 176 mL/min/kg | 49.2 µg/mL (≈ 145 µM) |  |  | O=C(CCCc1ccc(F)cc1)N1CCN(c2ccccc2)C(=O)C1
15.1 | 183 mL/min/kg | 2180 mL/min/kg | 56.5 µg/mL (≈ 144 µM) |  |  | CC(C(=O)Nc1ccc(C(N)=O)cc1)N1CCCC(c2nc3ccccc3o2)C1 (stereo unspecified)
0.787 | 114 mL/min/kg | 448 mL/min/kg | 38.9 µg/mL (≈ 114 µM) |  |  | CCN1CCc2ncnc(N(C)Cc3ccc4c(c3)OCCO4)c2C1
 | 8.72 mL/min/kg | 112 mL/min/kg |  | 0.0268 | 0.0267 | CCn1cc(C(=O)O)c(=O)c2c(N)c(F)c(NC3CCCCC3)cc21
1.98 | 119 mL/min/kg | 1960 mL/min/kg |  |  |  | CC1CCN(C(=O)CCn2ccc3ccncc32)CC1
 | ≤ 4.74 mL/min/kg | ≤ 10.7 mL/min/kg |  |  |  | CC(C)c1nc(/C=C/c2cnn(C)c2)ncc1C(=O)O
2.92 | ≤ 4.74 mL/min/kg | 387 mL/min/kg |  |  |  | CN1CCC(O)(CNS(=O)(=O)CC2CCCCC2)CC1
24.4 | ≤ 4.74 mL/min/kg | 238 mL/min/kg |  |  |  | CC(C)c1nccn1Cc1nc2ccccc2[nH]1
26.5 | 82.5 mL/min/kg | 507 mL/min/kg | 25.8 µg/mL (≈ 64.8 µM) |  |  | CC(=O)Nc1ccnn1C1CCN(Cc2ccccc2C#Cc2ccccc2)CC1
 |  |  | 27 µg/mL (≈ 100 µM) |  |  | CCn1nccc1-c1n[nH]c(=O)n1Cc1ccccc1
0.468 | 9.33 mL/min/kg | 39.7 mL/min/kg |  |  |  | Cc1nnc2ncc(-c3cccc4ccnn34)cn12
0.657 | ≤ 4.74 mL/min/kg | 97.1 mL/min/kg |  |  |  | Cc1cccc(C)c1OCCn1nnnc1C
1.32 | ≤ 4.74 mL/min/kg |  |  | 0.682 |  | CC1CC(N)CCN1C(=O)c1cc(N2CCNC2=O)c(F)cc1F (stereo unspecified)
0.556 | ≤ 4.74 mL/min/kg | 229 mL/min/kg |  |  |  | CC(=O)c1ccc2c(c1)CCN(CC1CCC3(CC1)OCCO3)CC2
0.541 | 39.6 mL/min/kg | 325 mL/min/kg | 12.9 µg/mL (≈ 46.1 µM) |  |  | COCC1CCN(c2noc(-c3cccs3)n2)CC1
 |  |  | 27.5 µg/mL (≈ 88.8 µM) |  |  | CC1(C)C(=O)N(Cc2ccc(CO)cc2)C(=O)c2ccccc21
0.543 | ≤ 4.74 mL/min/kg | 29.1 mL/min/kg | 22.2 µg/mL (≈ 78.1 µM) |  |  | COC(=O)Nc1ccc(Oc2nc3ccccc3o2)cc1
